Laboratory results from patent publication US12304932B2, “PACAP stabilized peptide” (SENJU PHARMACEUTICAL CO., LTD., priority 2017, dated 2025).
Square brackets hold non-standard residues; d marks the D form. Peptide text beside a SMILES is read from it. Ala(1H-tetrazol-5-yl) = N[C@@H](Cc1nnn[nH]1)C(=O)O

Assays:
[1] = Peptide stability test 5: Tris buffer pH 7.0, stored at 60° C., HPLC conditions 3; format: physicochemical; conditions: 100 μM peptide, Tris buffer pH 7.0, 60° C.
Procedure: Peptide 26 synthesized in Example 2 was weighed and dissolved in Tris buffer (pH 7.0) to prepare 1.0 mM peptide solutions. Each solution was filtered with a Chromatdisk (product of Merck Millipore, Millex-GV, 0.22 μm). The filtrate was diluted to 100 μM with Tris buffer (pH 7.0) and dispensed into a tube (Protein LoBind Tube by Eppendorf Co.). The prepared peptide solutions were incubated for one week or 2 weeks in a 60° C. thermostatic bath to obtain stored samples. A simultaneously prepared sample among the peptide solutions that was not stored was used as a standard sample (initial sample). The standard sample and the stored samples were stored at −30° C. until sample analysis.
The stored sample was measured under the following HPLC analysis conditions 3, and the survival rate alter correction for water for the peptide among the stored samples was calculated in the same manner as Example 3.
Column: XSelect CSH C18 by Waters Co., 5 μm, 4.6×250 mm
Guard column: XSelect CSH C18 by Waters Co., 5 4.6×20 mm Guard Cartridge
Detection wavelength: 220 nm
Mobile phase A: 0.1% formic acid in water
Mobile phase B: 0.1% formic acid in acetonitrile
Measuring time: 20 minutes
Measuring sample injection volume: 50 μL
Column temperature: 40° C.
Mobile phase delivery: The mixing ratio of mobile phase A and mobile phase B was varied as shown in Table 9 for linear concentration gradient control.

PAC1 receptor (PAC1R) = target: T1, PAC1 receptor (PAC1R) (Homo sapiens, UniProt P41586); conditions: background statement; cited from earlier work
T1 sequence (P41586 21-468): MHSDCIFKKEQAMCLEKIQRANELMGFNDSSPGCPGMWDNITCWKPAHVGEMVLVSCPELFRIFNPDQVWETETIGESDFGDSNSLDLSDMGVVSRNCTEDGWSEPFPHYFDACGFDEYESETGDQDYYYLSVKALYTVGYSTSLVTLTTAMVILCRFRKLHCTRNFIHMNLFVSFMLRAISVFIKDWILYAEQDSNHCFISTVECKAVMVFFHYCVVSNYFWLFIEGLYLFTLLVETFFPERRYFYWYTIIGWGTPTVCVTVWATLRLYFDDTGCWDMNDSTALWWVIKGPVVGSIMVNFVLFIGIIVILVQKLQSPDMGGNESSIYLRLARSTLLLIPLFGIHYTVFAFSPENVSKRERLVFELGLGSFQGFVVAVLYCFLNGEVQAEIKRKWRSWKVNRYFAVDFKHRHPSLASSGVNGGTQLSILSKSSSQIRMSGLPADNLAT

Row | Molecule | survival rate after correction for water, 60° C., 1-week storage ([1]; 1 week) [%] | survival rate after correction for water, 60° C., 2-week storage ([1]; 2 weeks) [%] | affinity of PAC1R for PACAP relative to its affinity for VIP (PAC1 receptor (PAC1R))
1 | CC[C@H](C)[C@H](NC(=O)CNC(=O)[C@H](Cc1nnn[nH]1)NC(=O)[C@H](CO)NC(=O)[C@H](Cc1c[nH]cn1)NC(C)=O)C(=O)N[C@@H](Cc1ccccc1)C(=O)N[C@H](C(=O)N[C@@H](Cc1nnn[nH]1)C(=O)N[C@@H](C)C(=O)N[C@@H](Cc1ccc(O)cc1)C(=O)N[C@@H](CO)C(=O)N[C@@H](CCCNC(=N)N)C(=O)N[C@@H](Cc1ccc(O)cc1)C(=O)N[C@@H](CCCNC(=N)N)C(=O)N[C@@H](CCCCN)C(=O)N[C@@H](C)C(=O)N[C@@H](CC(C)C)C(=O)N[C@@H](C)C(=O)N[C@H](C(=O)N[C@@H](CCCCN)C(=O)N[C@@H](CCCCN)C(=O)N[C@@H](Cc1ccc(O)cc1)C(=O)N[C@@H](CC(C)C)C(=O)N[C@@H](C)C(=O)N[C@@H](C)C(=O)N[C@H](C(=O)N[C@@H](CC(C)C)C(N)=O)C(C)C)C(C)C)[C@@H](C)O [Peptide 26] (Ac-HS[Ala(1H-tetrazol-5-yl)]GIFT[Ala(1H-tetrazol-5-yl)]AYSRYRKALAVKKYLAAVL-NH2) | 98.0 | 94.8 | –
2 | Pituitary adenylate cyclase-activating polypeptide [PACAP] | – | – | more than 1000 times
